Test results from ChEMBL document CHEMBL1201862, “PubChem BioAssay data set” (2004).
Activity calls are given as the source filed them.

Assays:
Aminopeptidase N = molecular target: T1, Aminopeptidase N (Plasmodium falciparum FcB1/Columbia, UniProt O96935); experiment: malaria alanyl aminopeptidase activity blockers – biochemical, fluorogenic H-Leu-NHMec substrate, 1536-well (AID 1445); design: species or system Plasmodium falciparum 3D7, 3D7
T1 sequence (O96935 whole entry): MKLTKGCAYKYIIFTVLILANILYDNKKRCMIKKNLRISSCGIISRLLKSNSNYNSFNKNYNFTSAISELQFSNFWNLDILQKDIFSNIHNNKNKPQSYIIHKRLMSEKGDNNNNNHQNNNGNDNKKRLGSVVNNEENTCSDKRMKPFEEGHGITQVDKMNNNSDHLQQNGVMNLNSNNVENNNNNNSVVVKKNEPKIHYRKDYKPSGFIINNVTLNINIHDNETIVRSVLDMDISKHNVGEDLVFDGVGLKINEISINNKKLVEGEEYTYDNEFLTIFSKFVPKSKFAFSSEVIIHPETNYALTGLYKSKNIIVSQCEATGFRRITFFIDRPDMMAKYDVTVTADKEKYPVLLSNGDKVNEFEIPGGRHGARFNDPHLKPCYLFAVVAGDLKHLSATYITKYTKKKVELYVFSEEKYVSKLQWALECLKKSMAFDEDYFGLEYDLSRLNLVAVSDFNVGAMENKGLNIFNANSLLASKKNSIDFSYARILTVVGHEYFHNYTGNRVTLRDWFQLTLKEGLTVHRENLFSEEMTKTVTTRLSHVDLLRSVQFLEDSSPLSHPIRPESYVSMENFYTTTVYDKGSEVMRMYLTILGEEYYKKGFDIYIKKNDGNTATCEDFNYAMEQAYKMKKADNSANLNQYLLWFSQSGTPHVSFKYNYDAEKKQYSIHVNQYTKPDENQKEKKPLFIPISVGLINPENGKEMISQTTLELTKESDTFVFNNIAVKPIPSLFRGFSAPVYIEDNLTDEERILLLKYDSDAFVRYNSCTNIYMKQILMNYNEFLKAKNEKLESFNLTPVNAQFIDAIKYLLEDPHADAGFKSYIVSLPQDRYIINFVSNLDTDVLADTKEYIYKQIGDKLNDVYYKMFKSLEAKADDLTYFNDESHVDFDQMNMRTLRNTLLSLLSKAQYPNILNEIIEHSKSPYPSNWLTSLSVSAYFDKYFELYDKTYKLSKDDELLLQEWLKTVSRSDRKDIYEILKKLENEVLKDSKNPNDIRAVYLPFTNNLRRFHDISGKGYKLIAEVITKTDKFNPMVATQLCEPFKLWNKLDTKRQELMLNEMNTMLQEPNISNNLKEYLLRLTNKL

[1] = HEK-293T cell viability reduction – luminescence, B-cell screen hits, cytotoxicity control for BCR NF-kB inhibitor project, dose response (AID 489021); type: functional, cell-based;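 note: HEK-293T cells carrying an NF-kB luciferase reporter; cells exposed to compound for about 14 hours before viability readout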
Cytochrome P450 2C19 = Cytochrome P450 2C19 (Homo sapiens, UniProt P33261); experiment: Cytochrome panel assay with activity outcomes. Panel member name: p450-cyp2c19 Compounds with AC50 equal or less than 10 uM are considered active; type: functional; settings: read-out: AC50
Cytochrome P450 2C9 = Cytochrome P450 2C9 (Homo sapiens, UniProt P11712)
Cytochrome P450 2D6 = Cytochrome P450 2D6 (Homo sapiens, UniProt P10635);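 note: CYP2D6 member of a cytochrome P450 panel assay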
HEK293 [2] = experiment: NOD2 signaling inhibitors in MDP-stimulated cells, cell-based, uHTS, luminescence (AID 2001); type: functional; settings: Homo sapiens
HEK293 [3] = experiment: cells; type: functional, cell-based; settings: Homo sapiens
[4] = non-specific 3'UTR reporter inhibition in Clone20-Shn3RL – cell-based, Renilla luciferase, cherry-picked, counter-screen for Shn3 inhibitor project, dose response (AID 624133); type: functional
[5] = loss of viability in HepG2 cells – cell-based, CellTiter-Glo, cherry-picked, cytotoxicity control for Shn3 inhibitor project, dose response (AID 624134); type: functional
HEK293 [6] = experiment: cells; type: functional, cell-based; settings: Homo sapiens; remark: listed apart in the source
[7] = reduction of Shn3 3'UTR-driven luciferase in osteoblasts – cell-based, Clone20 osteoblasts, firefly luciferase, cherry-picked, dose response (AID 624132); type: functional;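 note: firefly luciferase luminescence from reporter carrying the Shn3 3'UTR in osteoblasts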
HEK293 [8] = experiment: inhibition of NOD1-driven NF-kB reporter – cell-based, luminescence, uHTS, primary screen (AID 1578); type: functional; settings: Homo sapiens
Fatty acid synthase [9] = molecular target: T2, Fatty acid synthase (Homo sapiens, UniProt P49327); experiment: inhibition of human FAS-TE enzyme activity – biochemical, kinetic fluorescence intensity, dose response (AID 624326); type: functional;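 note: rate of fluorescence rise from hydrolysis of a fluorogenic O-methyl fluorescein ester substrate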
Fatty acid synthase [10] = molecular target: T2, Fatty acid synthase; experiment: inhibition of human FAS-TE enzyme activity – biochemical, endpoint fluorescence intensity, uHTS hits, dose response (AID 624327); type: functional;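 note: fluorescence from hydrolysis of an O-methyl fluorescein acyl ester substrate by the enzyme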
[11] = HEK-293T viability loss after treatment – luminescence, T-cell screen hits, cytotoxicity control for TCR NF-kB inhibitor project, dose response (AID 489026); type: functional, cell-based;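 note: cells exposed to compound about 14 hours before the viability readout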
Phospholipase A2 = Phospholipase A2 (Homo sapiens, UniProt P04054); type: functional;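 note: confirmatory dose-response counterscreen on phospholipase A2, testing hits that came from an ultra-high-throughput screen for ATG4B inhibitors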
Cysteine protease ATG4B = molecular target: T3, Cysteine protease ATG4B (Homo sapiens, UniProt Q9Y4P1); type: functional;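 note: Fluorescence-based dose-response confirmation assay measuring inhibition of ATG4B activity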
T3 sequence (Q9Y4P1 whole entry): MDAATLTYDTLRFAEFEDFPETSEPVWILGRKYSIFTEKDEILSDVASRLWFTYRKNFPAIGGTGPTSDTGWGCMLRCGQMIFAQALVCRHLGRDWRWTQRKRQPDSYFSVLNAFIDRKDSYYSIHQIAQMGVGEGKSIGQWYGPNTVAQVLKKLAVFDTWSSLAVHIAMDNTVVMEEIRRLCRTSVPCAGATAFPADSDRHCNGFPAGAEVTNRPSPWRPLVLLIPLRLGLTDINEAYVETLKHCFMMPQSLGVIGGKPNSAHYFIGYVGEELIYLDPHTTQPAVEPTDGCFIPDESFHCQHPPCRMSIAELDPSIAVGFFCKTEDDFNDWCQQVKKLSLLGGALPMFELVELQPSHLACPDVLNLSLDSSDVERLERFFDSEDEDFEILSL

[12] = system: Streptococcus sp. 'group A'; experiment: Streptococcus pyogenes SK(-)GAS viability under kanamycin – luminescence, BacTiterGlo, confirmation, counter-screen for streptokinase expression inhibitor project, dose response (AID 1900); type: functional, organism-based
Streptococcus = experiment: GAS UMAA2166 growth inhibition – luminescence, BacTiterGlo, counter-screen for streptokinase expression inhibitor project, dose response (AID 1915); type: functional, organism-based;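 note: potency for reduction of bacterial viability or growth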
Streptokinase A = molecular target: T4, Streptokinase A (Streptococcus pyogenes serotype M1, UniProt P10520); experiment: viability-normalized secreted streptokinase activity reduction – plasminogen activation absorbance, OD405, dose response (AID 1914); type: functional, Streptococcus pyogenes M1 GAS;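 note: secreted streptokinase activity via plasminogen activation per viability signal from cell pellet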
T4 sequence (P10520 whole entry): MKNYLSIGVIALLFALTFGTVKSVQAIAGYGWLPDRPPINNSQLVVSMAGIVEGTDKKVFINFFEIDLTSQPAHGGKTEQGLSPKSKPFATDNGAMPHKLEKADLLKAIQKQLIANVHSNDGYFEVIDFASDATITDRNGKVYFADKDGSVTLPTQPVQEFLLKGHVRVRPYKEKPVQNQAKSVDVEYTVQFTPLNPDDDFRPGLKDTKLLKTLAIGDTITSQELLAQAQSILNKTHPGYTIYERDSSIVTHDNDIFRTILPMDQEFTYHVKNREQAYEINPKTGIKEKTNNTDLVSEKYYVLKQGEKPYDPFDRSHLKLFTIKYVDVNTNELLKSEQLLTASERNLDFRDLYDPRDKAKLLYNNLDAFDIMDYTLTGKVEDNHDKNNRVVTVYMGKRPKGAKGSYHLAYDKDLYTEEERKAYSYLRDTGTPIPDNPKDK

[13] = A Cell Based Secondary Assay To Explore Cytotoxicity of Compounds that Sensitize Mycobacterium Tuberculosis to Beta-Lactam Antibiotics.; type: functional
[14] = Luminescence Cell-Based Dose Retest to Confirm Inhibitors of Cancer Stem Cells. [Related pubchem assays (depositor defined):AID2717, AID2721]; type: functional; settings: Homo sapiens
[15] = THP-1 cell cytotoxicity, dose response, cytotoxicity control for non-replicating M. tuberculosis project (AID 489025); type: functional
cells = type: functional
[16] = Trypanosoma cruzi growth suppression in host cells – NIH3T3 host cells, beta-gal luminescence, confirmation (AID 2044); type: functional, cell-based;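 note: intracellular parasites grown in NIH/3T3 mouse fibroblasts as host cells; luminescent beta-galactosidase reporter signal from transgenic T. cruzi replicating inside host cells; inhibitors lower the luminescence signal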
[17] = molecular target: T5, DNA repair protein RAD52 homolog (Homo sapiens, UniProt P43351); type: functional, biochemical
T5 sequence (P43351 whole entry): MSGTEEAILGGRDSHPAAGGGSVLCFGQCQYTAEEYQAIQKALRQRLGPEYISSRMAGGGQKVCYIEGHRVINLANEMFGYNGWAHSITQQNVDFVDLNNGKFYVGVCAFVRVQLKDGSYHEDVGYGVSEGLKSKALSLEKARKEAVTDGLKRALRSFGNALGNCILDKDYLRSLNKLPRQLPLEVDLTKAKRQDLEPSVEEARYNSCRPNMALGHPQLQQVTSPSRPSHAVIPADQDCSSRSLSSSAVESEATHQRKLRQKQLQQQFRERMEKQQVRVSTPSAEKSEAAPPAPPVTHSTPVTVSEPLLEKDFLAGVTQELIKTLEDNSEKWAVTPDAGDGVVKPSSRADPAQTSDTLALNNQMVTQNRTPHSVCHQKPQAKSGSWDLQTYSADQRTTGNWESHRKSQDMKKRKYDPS

[18] = NIH3T3 cell viability loss – ATP luminescence, mouse fibroblasts, counter-screen, dose response (AID 2010); type: functional, cell-based;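 note: cells exposed to compound for about 90 hours before reading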

Sequence of Cytochrome P450 2D6 (P10635 whole entry): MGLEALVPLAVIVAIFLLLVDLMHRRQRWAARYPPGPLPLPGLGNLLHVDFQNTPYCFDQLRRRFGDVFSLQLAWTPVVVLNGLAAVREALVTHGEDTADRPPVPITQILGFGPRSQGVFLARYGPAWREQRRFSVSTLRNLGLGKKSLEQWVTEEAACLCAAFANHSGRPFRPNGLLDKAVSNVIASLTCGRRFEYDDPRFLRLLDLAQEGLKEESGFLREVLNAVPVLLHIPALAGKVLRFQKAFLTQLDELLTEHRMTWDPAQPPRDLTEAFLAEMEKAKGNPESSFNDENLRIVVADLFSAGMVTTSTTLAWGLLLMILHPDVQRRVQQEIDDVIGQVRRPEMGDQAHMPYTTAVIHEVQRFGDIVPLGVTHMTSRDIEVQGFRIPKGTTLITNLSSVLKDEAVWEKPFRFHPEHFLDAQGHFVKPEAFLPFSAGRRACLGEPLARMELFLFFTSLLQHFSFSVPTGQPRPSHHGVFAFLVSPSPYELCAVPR
Sequence of Cytochrome P450 2C9 (P11712 whole entry): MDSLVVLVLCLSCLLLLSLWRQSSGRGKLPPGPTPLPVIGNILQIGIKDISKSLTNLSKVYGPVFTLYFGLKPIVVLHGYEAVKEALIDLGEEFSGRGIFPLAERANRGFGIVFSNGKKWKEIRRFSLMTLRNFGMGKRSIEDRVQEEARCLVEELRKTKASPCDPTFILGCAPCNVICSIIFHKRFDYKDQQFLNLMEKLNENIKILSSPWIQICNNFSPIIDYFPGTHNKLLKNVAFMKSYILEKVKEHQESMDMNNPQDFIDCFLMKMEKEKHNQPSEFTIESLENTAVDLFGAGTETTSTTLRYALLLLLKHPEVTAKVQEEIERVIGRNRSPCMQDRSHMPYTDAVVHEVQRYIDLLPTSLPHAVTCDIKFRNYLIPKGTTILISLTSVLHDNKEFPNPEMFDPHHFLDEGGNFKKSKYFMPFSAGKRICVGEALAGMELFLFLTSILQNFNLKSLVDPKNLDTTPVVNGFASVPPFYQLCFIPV
T2 sequence (P49327 whole entry): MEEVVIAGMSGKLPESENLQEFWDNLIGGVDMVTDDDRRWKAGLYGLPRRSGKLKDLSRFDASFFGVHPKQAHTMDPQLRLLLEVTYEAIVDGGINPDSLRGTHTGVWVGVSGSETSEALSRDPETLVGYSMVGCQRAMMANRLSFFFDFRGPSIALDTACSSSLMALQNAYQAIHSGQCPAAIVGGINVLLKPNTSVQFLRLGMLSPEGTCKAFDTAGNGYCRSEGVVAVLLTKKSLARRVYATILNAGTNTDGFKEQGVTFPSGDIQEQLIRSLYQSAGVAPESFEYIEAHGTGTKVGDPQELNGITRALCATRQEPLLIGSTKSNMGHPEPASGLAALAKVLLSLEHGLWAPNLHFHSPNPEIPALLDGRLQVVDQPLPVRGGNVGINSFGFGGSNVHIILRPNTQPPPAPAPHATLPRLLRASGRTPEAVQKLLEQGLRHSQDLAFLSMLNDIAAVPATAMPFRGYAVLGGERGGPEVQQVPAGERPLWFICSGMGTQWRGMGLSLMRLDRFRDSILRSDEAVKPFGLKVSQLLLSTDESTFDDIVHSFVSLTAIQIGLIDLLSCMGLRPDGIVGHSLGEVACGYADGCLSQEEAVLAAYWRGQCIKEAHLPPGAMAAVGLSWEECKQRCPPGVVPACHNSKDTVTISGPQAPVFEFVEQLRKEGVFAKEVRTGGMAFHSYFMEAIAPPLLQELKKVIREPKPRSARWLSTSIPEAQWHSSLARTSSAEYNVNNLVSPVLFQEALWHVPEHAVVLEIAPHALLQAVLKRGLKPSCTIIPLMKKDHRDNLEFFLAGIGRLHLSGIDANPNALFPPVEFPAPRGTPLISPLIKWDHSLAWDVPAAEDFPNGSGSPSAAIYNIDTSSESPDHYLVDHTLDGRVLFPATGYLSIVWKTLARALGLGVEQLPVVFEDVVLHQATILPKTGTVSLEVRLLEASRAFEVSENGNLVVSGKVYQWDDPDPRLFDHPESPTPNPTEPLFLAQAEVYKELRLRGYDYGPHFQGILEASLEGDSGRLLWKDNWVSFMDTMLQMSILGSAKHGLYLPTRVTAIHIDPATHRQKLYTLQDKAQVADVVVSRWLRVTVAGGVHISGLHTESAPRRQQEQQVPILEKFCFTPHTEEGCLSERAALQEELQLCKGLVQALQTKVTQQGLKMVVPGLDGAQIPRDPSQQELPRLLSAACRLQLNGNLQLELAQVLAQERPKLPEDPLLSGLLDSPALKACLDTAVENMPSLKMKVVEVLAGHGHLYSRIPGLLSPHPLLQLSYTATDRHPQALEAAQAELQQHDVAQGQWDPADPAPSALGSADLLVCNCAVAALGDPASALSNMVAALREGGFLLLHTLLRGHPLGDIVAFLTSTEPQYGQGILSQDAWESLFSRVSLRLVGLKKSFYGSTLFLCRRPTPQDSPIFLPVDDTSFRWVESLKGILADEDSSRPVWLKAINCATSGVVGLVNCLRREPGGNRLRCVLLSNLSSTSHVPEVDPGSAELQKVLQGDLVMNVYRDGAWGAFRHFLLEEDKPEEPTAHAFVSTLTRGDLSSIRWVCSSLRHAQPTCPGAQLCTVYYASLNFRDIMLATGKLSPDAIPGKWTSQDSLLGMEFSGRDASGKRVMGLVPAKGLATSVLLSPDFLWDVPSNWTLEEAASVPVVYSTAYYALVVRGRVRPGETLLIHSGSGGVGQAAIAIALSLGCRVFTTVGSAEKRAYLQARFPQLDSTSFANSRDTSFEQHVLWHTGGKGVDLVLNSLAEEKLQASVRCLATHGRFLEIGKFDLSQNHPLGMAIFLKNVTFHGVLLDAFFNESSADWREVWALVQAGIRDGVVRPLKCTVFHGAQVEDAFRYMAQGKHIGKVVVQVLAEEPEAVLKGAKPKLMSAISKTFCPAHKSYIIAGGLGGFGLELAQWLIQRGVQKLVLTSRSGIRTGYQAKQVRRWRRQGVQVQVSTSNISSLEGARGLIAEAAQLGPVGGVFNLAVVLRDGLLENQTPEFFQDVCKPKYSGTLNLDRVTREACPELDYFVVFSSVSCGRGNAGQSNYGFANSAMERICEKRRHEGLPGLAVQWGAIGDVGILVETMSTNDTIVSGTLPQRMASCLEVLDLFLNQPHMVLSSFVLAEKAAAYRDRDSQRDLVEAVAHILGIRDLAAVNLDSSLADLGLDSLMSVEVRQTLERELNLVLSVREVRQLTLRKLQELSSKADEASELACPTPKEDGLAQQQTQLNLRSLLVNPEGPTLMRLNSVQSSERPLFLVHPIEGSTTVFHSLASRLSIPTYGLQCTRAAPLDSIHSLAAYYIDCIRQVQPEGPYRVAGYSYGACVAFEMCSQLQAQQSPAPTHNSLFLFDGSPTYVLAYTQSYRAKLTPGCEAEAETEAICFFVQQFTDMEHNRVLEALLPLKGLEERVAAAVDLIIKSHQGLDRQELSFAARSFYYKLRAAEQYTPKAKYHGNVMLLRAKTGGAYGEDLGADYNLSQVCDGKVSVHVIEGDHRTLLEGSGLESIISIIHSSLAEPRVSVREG
Sequence of Cytochrome P450 2C19 (P33261 whole entry): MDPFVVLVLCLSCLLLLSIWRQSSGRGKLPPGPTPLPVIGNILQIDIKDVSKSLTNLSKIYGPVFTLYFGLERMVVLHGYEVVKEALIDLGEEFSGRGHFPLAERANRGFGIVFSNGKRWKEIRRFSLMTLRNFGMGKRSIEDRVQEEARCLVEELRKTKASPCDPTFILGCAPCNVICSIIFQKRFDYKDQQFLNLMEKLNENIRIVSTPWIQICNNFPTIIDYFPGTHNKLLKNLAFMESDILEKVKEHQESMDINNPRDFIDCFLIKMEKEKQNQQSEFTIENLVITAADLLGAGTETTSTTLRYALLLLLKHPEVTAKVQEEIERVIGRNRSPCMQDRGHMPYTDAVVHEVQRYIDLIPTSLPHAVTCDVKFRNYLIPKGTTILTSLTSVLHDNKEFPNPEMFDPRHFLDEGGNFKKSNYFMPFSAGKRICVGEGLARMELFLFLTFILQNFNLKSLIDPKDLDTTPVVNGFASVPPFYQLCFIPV
Sequence of Phospholipase A2 (P04054 whole entry): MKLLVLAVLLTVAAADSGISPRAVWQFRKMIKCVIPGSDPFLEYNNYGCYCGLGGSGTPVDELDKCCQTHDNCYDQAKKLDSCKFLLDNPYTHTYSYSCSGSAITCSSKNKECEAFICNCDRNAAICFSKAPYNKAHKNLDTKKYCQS

**Q.** With `O=C(NNS(=O)(=O)c1ccc(Cl)cc1)c1cc(-c2ccccc2)nc2ccccc12` as the compound, how does the IC50 (Aminopeptidase N) read?
**A.** 36.5 µM (active)

**Q.** For `CN1C(=O)CC(c2ccco2)Sc2ccccc21` (stereo not given), which IC50 [1] is on record?
**A.** > 80 µM (inactive)

**Q.** What does the source list for `O=C(O)C1CCN(c2c([N+](=O)[O-])cc(C(F)(F)F)cc2[N+](=O)[O-])CC1`?
**A.** AC50 (Cytochrome P450 2C19): 14.1 µM (inconclusive); AC50 (Cytochrome P450 2C9): 35.5 µM (inconclusive); AC50 (Cytochrome P450 2D6): inconclusive

**Q.** For `Cc1ccccc1N(CC(=O)NC1CCCC1)C(=O)C[S+]([O-])CC(=O)Nc1ccc2c(c1)OCO2` (stereo not given), which IC50 (Aminopeptidase N) is on record?
**A.** 63.9 µM (active)

**Q.** For `Cn1c(SCC(=O)N2CCCc3ccccc32)nc2ccccc2c1=O`, which IC50 (HEK293 [2]) is on record?
**A.** 6.57 µM (active)

**Q.** And the IC50 (HEK293 [3])?
**A.** 5.85 µM (active)

**Q.** And the AC50 [4]?
**A.** 4.04 µM (active)

**Q.** What about the AC50 [5] of the same compound?
**A.** 43.6 µM (active)

**Q.** What about the IC50 (HEK293 [6]) of the same compound?
**A.** 13.5 µM (active)

**Q.** What about the AC50 [7] of the same compound?
**A.** 3.46 µM (active)

**Q.** What about the EC50 (HEK293 [8]) of the same compound?
**A.** 4.77 µM (active)

**Q.** What does the source list for `O=C(NCc1ccc2c(c1)OCO2)c1cc([N+](=O)[O-])ccc1N1CCOCC1`?
**A.** IC50 (Fatty acid synthase [9]): 8.35 µM (active); IC50 (Fatty acid synthase [10]): 11.5 µM (active); IC50 [11]: > 80 µM (inactive)

**Q.** With `CC(C)c1ccc(NC2CCCN(C(=O)c3cnn(C(C)C)c3)C2)cc1` (stereo not given) as the compound, how does the IC50 (Phospholipase A2) read?
**A.** 6.21 µM (active)

**Q.** And the IC50 (Cysteine protease ATG4B)?
**A.** 9.04 µM (active)

**Q.** What does the source list for `COCCn1c(C)cc2c(c1=O)C(c1ccccc1F)C(C#N)=C(N)O2` (stereo not given)?
**A.** AC50 (Cytochrome P450 2C9): 17.8 µM (inconclusive); AC50 (Cytochrome P450 2D6): inconclusive

**Q.** What does the source list for `CC12CCC(C/C1=N\NC1=NC(=O)/C(=C\c3cccc(Br)c3)S1)C2(C)C` (stereo not given)?
**A.** EC50 [12]: 343 nM (active); EC50 (Streptococcus): 2.89 µM (active); EC50 (Streptokinase A): > 150 µM (not active); CC50 [13]: > 40 µM (active); AC50 [14]: 1.95 µM (active)

**Q.** For `N=C(N)Nc1nc(-c2ccccc2)c2ccccc2n1`, which CC50 [15] is on record?
**A.** 21.2 µM (active)

**Q.** What about the IC50 (cells) of the same compound?
**A.** 34.5 µM (active)

**Q.** What about the EC50 [16] of the same compound?
**A.** 142 nM (active)

**Q.** What about the AC50 [17] of the same compound?
**A.** 16.6 µM (active)

**Q.** What about the EC50 [18] of the same compound?
**A.** > 60 µM (not active)
